Results on one molecule are retold here after patent publication US12458646B2, “Therapeutic or preventing agent for multiple sclerosis including indole compound” (JAPAN TOBACCO INC., priority 2018, dated 2025).

For assay [1], the system named is mouse experimental autoimmune encephalomyelitis (EAE) model. The experiment in a line: disease animal model of MS (mouse experimental autoimmune encephalomyelitis (EAE) model, clinical score). The following applies: experiment using a disease animal model of MS. The assay is classed as in vivo. On the procedure:
Using a mouse EAE model, the suppressive effect of Compound A on an increase in clinical score was evaluated. The evaluation was performed by reference to non-patent document 3. As the experiment animal, 8-week-old female C57BL/6J mouse (CHARLES RIVER LABORATORIES JAPAN, INC.) was used. Monohydrochloride of Compound A was dissolved in 0.5% (w/v) methylcellulose (MC) to prepare 1 mg/mL, 3 mg/mL and 6 mg/mL Compound A solutions. FTY-720 hydrochloride (Cayman Chemical) was dissolved in 0.5% (w/v) MC to prepare a 0.01 mg/mL FTY-720 solution. […]
As clinical scores (score 0; normal, score 1; limp tail, score 2; hind limb weakness, score 3; partial hind limb paralysis, score 4; complete hind limb paralysis, score 5; moribund state, dead), the condition was observed over time and scored for each individual for 18 days from day 1.
Using a mouse Adoptive transfer EAE model, the suppressive effect of Compound A on an increase in clinical score was evaluated. […]
As clinical scores (score 0; normal, score 1; limp tail, score 2; hind limb weakness, score 3; partial hind limb paralysis, score 4; complete hind limb paralysis, score 5; moribund state, dead), the condition was observed over time and scored for each individual for 20 days from day 1.

Assay [2] deals with T1, inducible T cell kinase (ITK) (Homo sapiens, UniProt Q08881).
T1 sequence (Q08881 1-620): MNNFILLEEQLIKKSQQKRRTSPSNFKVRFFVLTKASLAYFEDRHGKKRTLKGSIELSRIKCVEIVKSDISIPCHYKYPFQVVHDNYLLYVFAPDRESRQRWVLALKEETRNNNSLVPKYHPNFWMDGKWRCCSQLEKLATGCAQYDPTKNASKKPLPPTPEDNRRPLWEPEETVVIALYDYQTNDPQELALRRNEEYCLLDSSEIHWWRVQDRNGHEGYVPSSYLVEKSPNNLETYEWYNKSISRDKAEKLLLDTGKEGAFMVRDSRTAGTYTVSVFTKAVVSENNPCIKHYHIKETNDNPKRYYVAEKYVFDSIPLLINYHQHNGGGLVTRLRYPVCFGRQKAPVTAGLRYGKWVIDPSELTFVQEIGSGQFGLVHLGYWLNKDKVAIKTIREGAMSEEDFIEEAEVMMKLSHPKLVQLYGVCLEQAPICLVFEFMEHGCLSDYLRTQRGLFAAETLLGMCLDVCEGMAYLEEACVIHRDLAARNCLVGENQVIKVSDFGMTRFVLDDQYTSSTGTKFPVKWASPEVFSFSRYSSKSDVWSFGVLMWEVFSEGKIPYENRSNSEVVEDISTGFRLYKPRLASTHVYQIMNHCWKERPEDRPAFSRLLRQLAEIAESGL
The following applies: as described in patent document 1 (WO 2011/065402); cited from earlier work.

Regarding `C[C@@H](C(=O)N(C)c1ccc2cc(-c3n[nH]c4c3CCC(C)(C)C4)[nH]c2c1)N1CCOCC1` [Compound A, N-[2-(6,6-dimethyl-4,5,6,7-tetrahydro-1H-indazol-3-yl)-1H-indol-6-yl]-N-methyl-(2S)-2-(morpholin-4-yl)propanamide], the “severity of the disease” value in assay [1] is recorded as “significantly reduce severity of the disease”. In assay [2], the ITK inhibitory activity result is listed as “has an ITK inhibitory activity”.
